{"source": "patent US20240051960A1", "about": "“SPIROCYCLIC IMIDAZOLIDINONES AND IMIDAZOLIDINEDIONES FOR TREATMENT OF LIGHT CHAIN AMYLOIDOSIS” (Protego Biopharma, Inc., priority 2021, published 2024)", "system": "Recombinant amyloidogenic full length light chain protein WIL-FL T46L", "assay": "Differential Scanning Fluorimetry (thermal shift) assay", "format": "binding", "conditions": "protein and compounds incubated at RT for 30 min before adding the dye, Thermal Shift Protein Stability Kit, 96-well plates", "procedure": "Differential Scanning Fluorimetry Assay\nThe stabilization effects the compounds have on the immunoglobulin light chain protein is quantitively measured using a thermal shift assay. Recombinant amyloidogenic full length light chain protein WIL-FL T46L is produced in E. coli, purified, and used in the assay. The Thermal Shift Protein Stability Kit from Biotium is used and the assay is done in 96-well Plates following the manufacture's instructions. The protein and compounds are incubated at RT for 30 min before adding the dye and subjected to the thermal shift assay. The thermal stability of each sample is then determined using standard curve fitting methods.\nCompounds that induce shifts in the ranges below are listed in the table below: • 0-0.5° C.=* • >0.5-1° C.=** • >1-1.5° C.=*** • >1.5° C.=****", "data": [{"smiles": "O=C(CN1C(=O)NC2(CCN(c3c[nH]c(=O)[nH]c3=O)CC2)C1=O)Nc1ccc(C(F)(F)F)cc1", "note": "[Compound 90]", "values": [{"measurement": "Thermal Shift", "value": "**** (>1.5° C.=****)"}]}]}
